What was measured:
[1] = system: MCF-7-derived mamospheres; test: Formation of MCF-7-derived mamospheres (CSC tumorspheres); type: cell-based; settings: for inhibition at 5 µM / inhibition at 10 µM / inhibition at 1 µM: Homo sapiens, MCF7, read-out: Inhibition of tumorsphere formation (%) MCF-7; for inhibition at 5 µM: @5 µM (footnote d); for Formation of tumorspheres (in words): MCF-7 mamospheres and HCT-116 colonospheres, noncytotoxic concentration; for inhibition at 1 µM: @1 µM (footnote b)
Method: (§1) (BD Biosciences, Franklin Lakes, NJ, USA). All cells were maintained at 37 °C in a humidified incubator in an atmosphere of 5% CO2, and passaged every 2–3 days.
(§2) Additionally, they were cultured using RPMI media (Gibco/Life Technologies; Grand […]
(§3) Colonospheres, mamospheres and colony formation unit assays. 30.000 cells per well of MCF-7 cells (mamos pheres), HCT-116 cells (colonospheres) and CD34+ cells from patients (colony formation units) were seeded in serum free non- adherent medium or […]
(§4) MethoCult (Stem Cell). […]

[2] = system: HCT-116-derived colonospheres; test: Formation of HCT-116-derived colonospheres (CSC tumorspheres); type: cell-based; settings: for inhibition at 1 µM: @1 µM (footnote b)
Method: as §1, §2, §3, §4

[3] = Viability of non-tumor fibroblast cell line; type: cell-based; settings: human, IMR90 non-tumor fibroblasts; for viability at 48 h, 1 µM: @1 µM (footnote b)
Method: The test compound was diluted in PBS.
Viability (%) tum orsphere form ation (%)

[4] = system: HCT-116; test: Cytotoxic effect in colon tumor cell line (MTT); settings: for viability at 1 µM: HCT-116, read-out: Viability (%) HCT-116, @1 µM (footnote b); for viability at 10 µM: HCT-116, read-out: Viability (%) HCT-116, @10 µM
Method: (§5) The cytotoxic effect was determined in breast (MCF-7) and colon (HCT-116) tumor cell lines using MTT assays.
(§6) Cells were seeded at 3 × 10^4 cells/mL in 96-well plates. The test compound was diluted in PBS. […] Viability was evaluated by MTT or WST-1 and dose/response curves were performed.

[5] = system: MCF-7; test: Cytotoxic effect in breast tumor cell line (MTT); settings: for viability at 5 µM / viability at 10 µM / viability at 1 µM: Homo sapiens; for viability at 5 µM: MCF7, read-out: Viability (%) MCF-7, @5 µM (footnote d); for viability at 10 µM: MCF7, read-out: Viability (%) MCF-7, @10 µM; for viability at 1 µM: MCF7, read-out: Viability (%) MCF-7, @1 µM (footnote b)
Method: as §5, §6

[6] = Plasma protein binding, equilibrium dialysis (RED); type: in vitro ADME; settings: mouse serum
Method: Based on the encouraging results obtained in ex vivo models of AML, we further assessed the therapeutic potential of the new NPM1 inhibitor in vivo. Prior to the evaluation of the compound in an animal model of AML, in vivo pharmacokinetic studies were addressed. Following a single intraperitoneal administration of UCM-13369 at a dose of 25 mg/kg, levels of 200–600 μg/L were detected in mouse peripheral blood up to 6 h (Figure 6A). Plasma protein binding of the compound in mouse serum was measured using an equilibrium dialysis assay, indicating a bound fraction of 83 ± 1%. Next, the efficacy of the compound was evaluated in immunodeficient mice after injection of OCI-AML3-ffLuc-GFP cells as an AML animal model. […]
coupled to a liquid nanochromatography Easy nLC 1200 System (Thermo Scientific).
Once digested, mutant NPM1 C+ C-end sample w as injected into a EASY-Spray™ C18 column, and digestion peptides were separated by using a lineal phase gradi ent (A: 0.1% formic acid in water; B: 20% acetonitrile, 0.1% formic acid in water) for 120 min. Spectra were acquired in DDA m ode, analyzing the 10 higher intensity parent ions in each cycl e.
Proteome Discoverer (Thermo Scientific) was used to align the spectra with the C-end […]
Random exclusion of AIRs was set to 2%. […] Clusters were classifi ed according to H ADDOCK score and stru ctures w er e analyzed with UCSF ChimeraX).10 […]

[7] = Homo sapiens, HCT-116, read-out: Inhibition of tumorsphere formation (%) HCT-116
[8] = Homo sapiens, HCT-116, @10 µM, read-out: Inhibition of tumorsphere formation (%) HCT-116

Row | Compound | inhibition at 10 µM ([1]; @10 µM) [%] | inhibition at 10 µM [2, 8] [%] | viability at 10 µM ([4]; Homo sapiens) [%] | viability at 10 µM [5] [%] | also measured
1 | COc1ccc([C@@H]2C(CNCC3CC3)=C[C@H]3[C@@H](c4ccccc4OC3(C)C)[C@H]2N)cc1 [6a] |  |  |  |  | inhibition at 5 µM [1]: 100%; Formation of tumorspheres (in words) [1]: completely inhibit; inhibition at 1 µM [2, 7]: 100%; viability at 48 h, 1 µM [3]: 95 ± 5%; viability at 48 h, 5 µM [3]: 53 ± 12%; viability at 1 µM ([4]; Homo sapiens): 81 ± 6%; viability at 5 µM [5]: 94 ± 11%
2 | COc1ccc2c(c1)[C@H]1C(=NO)N(CC3CC3)C[C@@H]1C(C)(C)O2 [7a] | 0 | 0 | 92 ± 1 | 98 ± 1 | 
3 | COc1ccc([C@H]2C(CNCC3CC3)=C[C@@H]3[C@H](c4ccccc4OC3(C)C)[C@@H]2N)cc1 [6b] |  |  |  |  | inhibition at 5 µM [1]: 100%; Formation of tumorspheres (in words) [1]: completely inhibit; inhibition at 1 µM [2, 7]: 100%; viability at 48 h, 5 µM [3]: 57 ± 13%; viability at 1 µM ([4]; Homo sapiens): 78 ± 9%; viability at 5 µM [5]: 94 ± 5%
4 | COc1ccc2c(c1)[C@H](CN)[C@@H](CNCC1CC1)C(C)(C)O2 [12b] | 0 | 0 | 92 ± 3 | 73 ± 3 | 
5 | COc1ccc(C2CC(=O)N(CC3CC3)CC2N)cc1 (stereo not shown) [1b] | 0 | 0 | 97 ± 2 | 80 ± 2 | 
6 | COc1ccc(C2C(CNCC3CC3)=Cc3nccnc3N2C)cc1 (stereo not shown) [13b] |  |  |  |  | Inhibition of tumorsphere formation (%) MCF-7 ([1]; @10 µM): 0%; Inhibition of tumorsphere formation (%) HCT-116 ([2]; @10 µM): 0%; Viability (%) HCT-116 ([4]; @10 µM): 90 ± 3%; Viability (%) MCF-7 ([5]; @10 µM): 89 ± 6%
7 | COc1ccc([C@@H]2CC(=O)N(CC3CC3)C[C@H]2N)cc1 [1a] | 0 | 0 | 70 ± 2 | 91 ± 7 | 
8 | COc1ccc2c(c1)[C@@H](CN)[C@H](CNCC1CC1)C(C)(C)O2 [12a] | 0 | 0 | 90 ± 4 | 90 ± 2 | 
9 | COc1ccc2c(c1)C1C(=NO)N(CC3CC3)CC1C(C)(C)O2 (stereo not shown) [7b] | 0 | 0 | 95 ± 2 | 96 ± 2 | 
10 | COc1ccc([C@H]2CCN(CC3CC3)C[C@@H]2N)cc1 [2b] | 0 | 0 | 94 ± 3 | 97 ± 3 | 
11 | COc1ccc([C@H]2Oc3ccccc3[C@H]3[C@@H](N)[C@H](c4ccc(OC)cc4)C(CNCC4CC4)=C[C@@H]32)cc1 [5a] |  |  |  |  | inhibition at 1 µM [1]: 100%; Formation of tumorspheres (in words) [1]: completely inhibit; inhibition at 1 µM [2, 7]: 100%; viability at 48 h, 1 µM [3]: 83 ± 6%; viability at 48 h, 5 µM [3]: 20 ± 5%; viability at 1 µM ([4]; Homo sapiens): 87 ± 1%; viability at 1 µM [5]: 99 ± 1%
12 | COc1ccc([C@H]2CCNC[C@@H]2NCC2CC2)cc1 [3b] | 0 | 0 | 94 ± 3 | 95 ± 4 | 
13 | COc1ccc([C@@H]2CCNC[C@H]2NCC2CC2)cc1 [3a] | 0 | 0 | 95 ± 1 | 98 ± 2 | 
14 | COc1ccc([C@H]2Oc3ccccc3[C@@H](CN)[C@@H]2C(=O)NCC2CC2)cc1 [10a] | 4 ± 2 | 2 ± 1 | 61 ± 8 | 89 ± 6 | melting point: 175 to 177 °C
15 | CC(C)NCC(O)COc1cccc2ccccc12 (stereo not shown) [Propranolol, reference compound] |  |  |  |  | Plasma protein binding, bound fraction [6]: 86±2%
16 | COc1ccc2c(c1)[C@@H](CN)[C@H](C(=O)NCC1CC1)C(C)(C)O2 [11a] | 0 | 0 | 94 ± 2 | 92 ± 2 | 
17 | COc1ccc([C@H]2C(CNCC3CC3)=C[C@@H]3[C@H](c4ccccc4O[C@H]3c3ccc(OC)cc3)[C@@H]2N)cc1 [5b] |  |  |  |  | inhibition at 1 µM [1]: 100%; Formation of tumorspheres (in words) [1]: completely inhibit; inhibition at 1 µM [2, 7]: 100%; viability at 48 h, 1 µM [3]: 98 ± 2%; viability at 48 h, 5 µM [3]: 28 ± 7%; viability at 1 µM ([4]; Homo sapiens): 94 ± 6%; viability at 1 µM [5]: 87 ± 1%
18 | COc1ccc2c(c1)C1CN(CC3CC3)CC1C(C)(C)O2 (stereo not shown) [8b] | 0 | 0 | 93 ± 2 | 98 ± 1 | 
19 | COc1ccc2c(c1)[C@H](CN)[C@@H](C(=O)NCC1CC1)C(C)(C)O2 [11b] | 0 | 0 | 94 ± 2 | 99 ± 1 | 
20 | COc1ccc([C@@H]2Oc3ccccc3[C@H](CN)[C@H]2C(=O)NCC2CC2)cc1 [10b] | 0 | 0 | 70 ± 1 | 94 ± 5 | 
21 | COc1ccc([C@@H]2Cc3[nH]c4ccccc4c3[C@H](CCNCC3CC3)[C@H]2N)cc1 [4a, 4-{2-[(Cyclopropylmethyl)amino]ethyl}-2-(4-methoxyphenyl)-2,3,4,9-tetrahydro-1H-carbazol-3-amine] |  |  |  |  | inhibition at 1 µM [1]: 0%; inhibition at 0.1 µM ([2]; Homo sapiens, HCT-116, @0.1 µM (footnote c), read-out: Inhibition of tumorsphere formation (%) HCT-116): 0%; viability at 0.1 µM ([4]; Homo sapiens, HCT-116, read-out: Viability (%) HCT-116, @0.1 µM (footnote c)): 85 ± 2%; viability at 1 µM [5]: 92 ± 7%
22 | COc1ccc(C2C(CNCC3CC3)=Cc3nccnc3N2C)cc1 (stereo not shown) [13a] | 0 | 0 | 85 ± 7 |  | 
23 | COc1ccc2c(c1)C1C(=O)N(CC3CC3)CC1C(C)(C)O2 (stereo not shown) [9b] | 0 | 0 | 90 ± 3 | 65 ± 2 | 
24 | COc1ccc2c(c1)[C@H]1C(=O)N(CC3CC3)C[C@@H]1C(C)(C)O2 [9a] | 0 | 0 | 94 ± 2 | 73 ± 5 | 
25 | COc1ccc([C@@H]2CCN(CC3CC3)C[C@H]2N)cc1 [2a] | 0 | 0 | 90 ± 1 | 96 ± 3 | 
26 | COc1ccc2c(c1)[C@H]1CN(CC3CC3)C[C@@H]1C(C)(C)O2 [8a] | 0 | 0 | 94 ± 6 | 65 ± 1 | 

— PMC11134387, “Cancer-Stem-Cell Phenotype-Guided Discovery of a Microbiota-Inspired Synthetic Compound Targeting NPM1 for Leukemia” (JACS Au, 2024)
